# Measurements from patent US8029770B2 (Rutgers, The State University, priority 2003, dated 2011).
# Entries after “also recorded” stand apart in the source; their conditions may differ. Like-named read-outs stand apart in the source and are kept apart here. Marks after values point to notes of the source that are not given here.
# Experiments:
# [1] = system: phospho-Chk2 (Ser387); experiment: Epidermal phospho-Chk2 (Ser387) in UVB-treated mice, western blot; type: in vivo, mouse; conditions: topical immediately after UVB 30 mJ/cm2; 6 hours
# [2] = system: UVB-induced skin lesions in SKH-1 mice; experiment: Prevention of UVB-induced skin (sunburn) lesions, sunscreen effect; type: in vivo, mouse; conditions: 4.8% caffeine or 8.0% caffeine sodium benzoate (24 μmoles) in 100 mg DERMABASE 30 minutes before UVB 180 mJ/cm^2 on two consecutive days (FIG. 2)
# Method: The areas (mm^2) and the intensity of red color in UVB-induced skin lesion were estimated semi-quantitatively 5 days after first UVB treatment. The lesion index were calculated as the lesion area multiplied by the arbitrary intensity: 0, no lesion; 1 barely detectable red lesion; 2 moderate red lesion, and 3, bright red lesion.
# Outdoor occupational human exposure to UVB or a sunbathing exposure in the summer has been reported to range from 50-100 mJ/cm^2 per day (Larko, et al. (1983) Clin. Exp. Dermatol. 8:279-285; Diffey (1991) Phys. Med. Biol. 36:299-328).
# [3] = system: cyclin B1; experiment: Epidermal cyclin B1 in UVB-treated mice, western blot and immunohistochemistry; type: in vivo, mouse
# [4] = system: prostate tumor cell line PC-3; experiment: Apoptosis in prostate tumor cell line PC-3; type: cell-based
# [5] = system: UVB-induced skin tumors in high risk SKH-1 mice
# [6] = Weight of mouse during topical treatment of UVB-pretreated high risk SKH-1 mice; type: in vivo
# Method: Female SKH-1 mice were treated with 30 mJ/cm^2 of UVB twice a week for 20 weeks.
# [7] = system: apoptotic sunburn cells in the epidermis of SKH-1 mice; experiment: UVB-induced apoptotic sunburn cells in the epidermis of SKH-1 mice after topical application; type: in vivo, mouse; conditions: for Percent Apoptotic Sunburn Cells, Non-UVB Treated: no UVB
# Method: Chemicals and Animals. […] Female SKH-1 hairless mice (6 to 7 weeks old) were purchased from the Charles River Breeding Laboratories, and the animals were kept in an animal facility for at least one week before use at 7 to 8 weeks of age. Mice were given water and PURINA® Laboratory CHOW® 5001 diet from Ralston-Purina (St. […] For the analysis conducted herein, 5 mice were used per group. Treatment of Mice with UVB. […] The radiation was further calibrated with a model IL-1700 research radiometer/photometer (International Light, Newburyport, Mass.). Measurement of apoptotic sunburn cells. Identification of apoptoic sunburn cells was based morphologically on cell shrinkage and nuclear condensation due to fragmentation of the cells. […] Six hours after UVB, the animals were sacrificed and apoptotic sunburn cells in the epidermis were determined morphologically. […] Six hours after UVB, the animals were sacrificed and apoptotic sunburn cells in the epidermis were determined morphologically. […] Acetone Formulation. […] Six hours after UVB, the animals were sacrificed and apoptotic sunburn cells in the epidermis were determined morphologically. […] […] Formulations. […] Six hours after UVB the animals were sacrificed and apoptotic sunburn cells in the epidermis were determined morphologically. […] Six hours after UVB the animals were sacrificed and apoptotic sunburn cells in the epidermis were determined morphologically.
structure (smiles),measurement,setting,value
"Cn1c(=O)c2c(ncn2C)n(C)c1=O.O=C([O-])c1ccccc1.[Na+] [Caffeine Sodium Benzoate, caffeine sodium benzoate]",UVB-induced increase in the level of phospho-Chk2 (Ser387),[1],inhibited
same,formation of UVB-induced sunburn (skin) lesions,[2],significantly prevented skin lesion formation; also recorded: inhibited the formation of sunburn lesions; also recorded: even more dramatic inhibitory effect
same,percent of cyclin B1 positive cells in the epidermis,"[3]; UVB-treated mice, frozen sections, immunohistochemical",substantially enhanced
same,effect on cyclin B1 positive cells in the absence of UVB,[3]; no UVB,little or no effect
same,level of epidermal cyclin B1 vs UVB alone,"[3]; topical immediately after UVB 30 mJ/cm2, western blot",increased substantially
same,apoptosis in PC-3,"[4]; 0.1, 0.2 or 0.5 mM for 96 hours",dose-response relationship on apoptosis
same,pro-apoptotic effect compared with caffeine,"[4]; PC-3, 0.1, 0.2 or 0.5 mM, 96 hours",more potent than caffeine at all dose levels tested
same,No. of large tumors (diameter > 5 mm),"[5]; week 0, 2% CSB in DERMABASE",0
same,Tumor volume per mouse (all mice) (mm^3),"[5]; week 0, 2% CSB in DERMABASE",0 mm^3
same,Tumor volume per tumor (mm^3),"[5]; week 0, 2% CSB in DERMABASE",0 mm^3
same,Tumors per mouse,"[5]; week 0, 2% CSB in DERMABASE",0
same,No. of large tumors (diameter > 5 mm),"[5]; week 0, 6% CSB in DERMABASE",0
same,Tumor volume per mouse (all mice) (mm^3),"[5]; week 0, 6% CSB in DERMABASE",0 mm^3
same,Tumor volume per tumor (mm^3),"[5]; week 0, 6% CSB in DERMABASE",0 mm^3
same,Tumors per mouse,"[5]; week 0, 6% CSB in DERMABASE",0
same,No. of large tumors (diameter > 5 mm),"[5]; week 5, 2% CSB in DERMABASE",0
same,Tumor volume per mouse (all mice) (mm^3),"[5]; week 5, 2% CSB in DERMABASE",0.1 ± 0.1 mm^3
same,Tumor volume per tumor (mm^3),"[5]; week 5, 2% CSB in DERMABASE",0.5 ± 0.0 mm^3
same,Tumors per mouse,"[5]; week 5, 2% CSB in DERMABASE",0.2 ± 0.1
same,No. of large tumors (diameter > 5 mm),"[5]; week 5, 6% CSB in DERMABASE",0
same,Tumor volume per mouse (all mice) (mm^3),"[5]; week 5, 6% CSB in DERMABASE",0.0 ± 0.0 mm^3
same,Tumor volume per tumor (mm^3),"[5]; week 5, 6% CSB in DERMABASE",0.5 ± 0.0 mm^3
same,Tumors per mouse,"[5]; week 5, 6% CSB in DERMABASE",0.0 ± 0.0
same,No. of large tumors (diameter > 5 mm),"[5]; week 7, 2% CSB in DERMABASE",0
same,Tumor volume per mouse (all mice) (mm^3),"[5]; week 7, 2% CSB in DERMABASE",0.6 ± 0.4 mm^3
same,Tumor volume per tumor (mm^3),"[5]; week 7, 2% CSB in DERMABASE",1.5 ± 0.5 mm^3
same,Tumors per mouse,"[5]; week 7, 2% CSB in DERMABASE",0.4 ± 0.2
same,No. of large tumors (diameter > 5 mm),"[5]; week 7, 6% CSB in DERMABASE",0
same,Tumor volume per mouse (all mice) (mm^3),"[5]; week 7, 6% CSB in DERMABASE",0.1 ± 0.1 mm^3
same,Tumor volume per tumor (mm^3),"[5]; week 7, 6% CSB in DERMABASE",0.5 ± 0.0 mm^3
same,Tumors per mouse,"[5]; week 7, 6% CSB in DERMABASE",0.2 ± 0.1
same,No. of large tumors (diameter > 5 mm),"[5]; week 9, 2% CSB in DERMABASE",0
same,Tumor volume per mouse (all mice) (mm^3),"[5]; week 9, 2% CSB in DERMABASE",1.0 ± 0.5 mm^3
same,Tumor volume per tumor (mm^3),"[5]; week 9, 2% CSB in DERMABASE",1.9 ± 0.9 mm^3
same,Tumors per mouse,"[5]; week 9, 2% CSB in DERMABASE",0.5 ± 0.2
same,No. of large tumors (diameter > 5 mm),"[5]; week 9, 6% CSB in DERMABASE",0
same,Tumor volume per mouse (all mice) (mm^3),"[5]; week 9, 6% CSB in DERMABASE",0.3 ± 0.2 mm^3
same,Tumor volume per tumor (mm^3),"[5]; week 9, 6% CSB in DERMABASE",0.9 ± 0.4 mm^3
same,Tumors per mouse,"[5]; week 9, 6% CSB in DERMABASE",0.3 ± 0.1
same,No. of large tumors (diameter > 5 mm),"[5]; week 11, 2% CSB in DERMABASE",0
same,Tumor volume per mouse (all mice) (mm^3),"[5]; week 11, 2% CSB in DERMABASE",1.8 ± 0.2 mm^3
same,Tumor volume per tumor (mm^3),"[5]; week 11, 2% CSB in DERMABASE",2.1 ± 0.6 mm^3
same,Tumors per mouse,"[5]; week 11, 2% CSB in DERMABASE",0.9 ± 0.3
same,No. of large tumors (diameter > 5 mm),"[5]; week 11, 6% CSB in DERMABASE",0
same,Tumor volume per mouse (all mice) (mm^3),"[5]; week 11, 6% CSB in DERMABASE",1.0 ± 0.4 mm^3
same,Tumor volume per tumor (mm^3),"[5]; week 11, 6% CSB in DERMABASE",2.0 ± 0.5 mm^3
same,Tumors per mouse,"[5]; week 11, 6% CSB in DERMABASE",0.5 ± 0.2
same,Weight of mouse,"[6]; week 0, 2% CSB in DERMABASE",30.5 ± 0.5 g
same,Weight of mouse,"[6]; week 0, 6% CSB in DERMABASE",30.4 ± 0.6 g
same,Weight of mouse,"[6]; week 5, 2% CSB in DERMABASE",30.3 ± 0.4 g
same,Weight of mouse,"[6]; week 5, 6% CSB in DERMABASE",29.9 ± 0.5 g
same,Weight of mouse,"[6]; week 7, 2% CSB in DERMABASE",30.6 ± 0.4 g
same,Weight of mouse,"[6]; week 7, 6% CSB in DERMABASE",29.8 ± 0.5 g
same,Weight of mouse,"[6]; week 9, 2% CSB in DERMABASE",30.6 ± 0.4 g
same,Weight of mouse,"[6]; week 9, 6% CSB in DERMABASE",30.0 ± 0.5 g
same,Weight of mouse,"[6]; week 11, 2% CSB in DERMABASE",30.7 ± 0.5 g
same,Weight of mouse,"[6]; week 11, 6% CSB in DERMABASE",30.2 ± 0.5 g
same,"Percent Sunburn Cells, UVB","[7]; 6.2 μmole (each) in 100 μL acetone:water (9:1) immediately after UVB 30 mJ/cm^2 and at 30 and 120 min, 6 h, mean ± S.E.",1.10 ± 0.10%
same,Percent Apoptotic Sunburn Cells,"[7]; 6.2 μmole in 100 μL acetone right after UVB 30 mJ/cm^2 and at 30 and 120 min, 6 h after UVB, mean ± S.E.",1.089 ± 0.080^a %
same,"Percent Sunburn Cells, UVB","[7]; 100 mg formulation (2.4% caffeine or 4.0% caffeine sodium benzoate, 12.4 μmole, in DERMABASE; or commercial product) immediately after UVB 30 mJ/cm^2, 6 h",2.33 ± 0.36^a %
same,"Percent Sunburn Cells, UVB","[7]; 1.0% CSB in 100 mg DERMABASE immediately after UVB 30 mJ/cm^2, 6 h",0.74 ± 0.20^a %
same,"Percent Sunburn Cells, UVB","[7]; 2.0% CSB in 100 mg DERMABASE immediately after UVB 30 mJ/cm^2, 6 h",0.99 ± 0.20^a %
same,"Percent Sunburn Cells, UVB","[7]; 4.0% CSB in 100 mg DERMABASE immediately after UVB 30 mJ/cm^2, 6 h",1.22 ± 0.19^a %
same,"Percent Sunburn Cells, UVB","[7]; 6.0% CSB in 100 mg DERMABASE immediately after UVB 30 mJ/cm^2, 6 h",1.67 ± 0.31^a %
same,"Percent Sunburn Cells, UVB","[7]; 8.0% CSB in 100 mg DERMABASE immediately after UVB 30 mJ/cm^2, 6 h",1.75 ± 0.32^a %
same,"enhancement of UVB-induced apoptosis in the epidermis, applied in DERMABASE","[7]; DERMABASE vehicle, equimolar amounts (Table 4)",to a greater extent than equimolar amounts of caffeine
same,Percent Apoptotic Sunburn Cells,"[7]; Exp-1, 6.2 μmole in acetone:water (9:1) x3 after UVB 30 mJ/cm^2, 6 h",1.09 ± 0.08%
same,Percent Apoptotic Sunburn Cells,"[7]; Exp-2, 3.1 μmole in acetone:water (9:1) x3 after UVB 30 mJ/cm^2, 6 h",0.45 ± 0.07%
same,"Percent Apoptotic Sunburn Cells, Non-UVB Treated","[7]; Exp-2, 3.1 μmole",0.02 ± 0.01%
same,Percent Apoptotic Sunburn Cells,"[7]; Exp-2, 6.2 μmole in acetone:water (9:1) x3 after UVB 30 mJ/cm^2, 6 h",0.68 ± 0.06%
same,"Percent Apoptotic Sunburn Cells, Non-UVB Treated","[7]; Exp-2, 6.2 μmole",0.03 ± 0.01%
same,% Induction,"[7]; Table 1, vs acetone group, 6.2 μmole x3 after UVB 30 mJ/cm^2, 6 h",434%
same,% Induction,"[7]; Table 3 Exp-1, 6.2 μmole",445%
same,% Induction,"[7]; Table 3 Exp-2, 3.1 μmole",114%
same,% Induction,"[7]; Table 3 Exp-2, 6.2 μmole",224%
same,% Induction,"[7]; Table 4, 1.0% CSB in DERMABASE",270%
same,% Induction,"[7]; Table 4, 2.0% CSB in DERMABASE",395%
same,% Induction,"[7]; Table 4, 4.0% CSB in DERMABASE",510%
same,% Induction,"[7]; Table 4, 6.0% CSB in DERMABASE",735%
same,% Induction,"[7]; Table 4, 8.0% CSB in DERMABASE",775%
same,effect on non-UVB-treated cells,[7]; no UVB (Table 3),unaffected
